Tests used:
Myzus persicae = Myzus persicae test (cabbage leaf dip); assay type: in vivo
Source text: (§1) Formula for the calculation of the kill rate of a combination of two active compounds
(§2) The expected activity for a given combination of two active compounds can be calculated (cf. COLBY, S. R.; “Calculating Synergistic and Antagonistic Responses of Herbicide Combinations”, Weeds 15, pages 20-22, 1967):
(§3) if • X=the kill rate, expressed in % of the untreated control, when employing active compound A at an application rate of m ppm, • Y=the kill rate, expressed in % of the untreated control, when employing active compound B at an application rate of n ppm, • E=the kill rate, expressed in % of the untreated control, when employing active compounds A and B at application rates of m and n ppm, then
(§4) If the actual insecticidal kill rate is higher than the calculated one, the kill rates of the combination are superadditive, i.e. a synergistic effect is present. In this case, the kill rate that is actually observed has to be higher than the value, calculated using the formula above, for the expected kill rate (E).
Solvent: 7 parts by weight of dimethylformamide Emulsifier: 2 parts by weight of alkylaryl polyglycol ether
To produce a suitable preparation of active compound, 1 part by weight of active compound is mixed with the stated amounts of solvent and emulsifier, and the concentrate is diluted with emulsifier-containing water to the desired concentration.
Cabbage leaves (Brassica oleracea) which are heavily infested by the green peach aphid (Myzus persicae) are treated by being dipped into the preparation of active compound of the desired concentration.
After the desired period of time, the kill in % is determined. 100% means that all aphids have been killed; 0% means that none of the aphids have been killed. The determined kill rates are entered into Colby's formula.

[1] = tested on: Plutella xylostella (normally sensitive strain); experiment: Plutella xylostella test, normally sensitive strain (cabbage leaf dip); assay type: in vivo; details: 20 ppm
Source text: as §1, §2, §3, §4
To produce a suitable preparation of active compound, 1 part by weight of active compound is mixed with the stated amounts of solvent and emulsifier, and the concentrate is diluted with emulsifier-containing water to the desired concentration. […]
After the desired period of time, the kill in % is determined. […] The determined kill rates are entered into Colby's formula (see sheet 1).

## CN/C(=N\[N+](=O)[O-])NCc1cnc(Cl)s1 [clothianidin]
Myzus persicae; 0.16 ppm, after 1 day (Table A2)
  Kill in % after 1 day: 0%

## C/C(=N\C#N)N(C)Cc1ccc(Cl)nc1 [acetamiprid]
Myzus persicae; 0.16 ppm
  Kill in % after 6 days: 30%

## CNC(=O)Oc1cc(C)c(SC)c(C)c1 [methiocarb, 3,5-dimethyl-4-(methylthio)phenyl methylcarbamate]
Myzus persicae; 20 ppm, after 1 day (Table A2)
  Kill in % after 1 day: 5%
Myzus persicae; 20 ppm, after 1 day (Table A3)
  Kill in % after 1 day: 5%
Myzus persicae; 100 ppm
  Kill in % after 6 days: 50%
[1]
  Kill in % after 3 days: 0%

## N#C/N=C1\SCCN1Cc1ccc(Cl)nc1 [thiacloprid]
Myzus persicae; 0.8 ppm, after 1 day (Table A3)
  Kill in % after 1 day: 20%
[1]
  Kill in % after 3 days: 0%

— US20080139388A1, “Synergistic Insecticide Mixtures” (priority 2004, published 2008)
